System: HCV type 1b replicon in Huh-7 luc/neo (Huh-Luc) cells
Assay: HCV replicon assay (Huh-Luc, luciferase readout)
Format: cell-based
Conditions: Hepatitis C virus, Huh-7, 72 h
From the text: The compounds of formula I may be examined for activity in the inhibition of HCV RNA replication in a cellular assay aimed at identifying compounds that inhibit a HCV functional cellular replicating cell line, also known as HCV replicons. A suitable cellular assay is based on a bicistronic expression construct, as described by Lohmann et al. (1999), Science vol. 285 pp. 110-113 with modifications described by Krieger et al. (2001), Journal of Virology 75: 4614-4624, in a multi-target screening strategy.
The assay utilizes the stably transfected cell line Huh-7 luc/neo (hereafter referred to as Huh-Luc). This cell line harbours an RNA encoding a bicistronic expression construct comprising the wild type NS3-NS5B regions of HCV type 1b translated from an Internal Ribosome Entry Site (IRES) from encephalomyocarditis virus (EMCV), preceded by a reporter portion (FfL-luciferase), and a selectable marker portion (neo^R, neomycine phosphotransferase). The construct is bordered by 5′ and 3′ NTRs (non-translated regions) from HCV type 1b. Continued culture of the replicon cells in the presence of G418 (neo^R) is dependent on the replication of the HCV RNA. The stably transfected replicon cells that express HCV RNA, which replicates autonomously and to high levels, encoding inter alia luciferase, are used for screening the antiviral compounds.
The replicon cells are plated in 384 well plates in the presence of the test and control compounds which are added in various concentrations. Following an incubation of three days. HCV replication is measured by assaying luciferase activity (using standard luciferase assay substrates and reagents and a Perkin Elmer ViewLux™ ultraHTS microplate imager). Replicon cells in the control cultures have high luciferase expression in the absence of any inhibitor. The inhibitory activity of a compound on luciferase activity is monitored on the Huh-Luc cells, enabling a dose-response curve for each test compound. EC50 values are then calculated, which value represents the amount of the compound required to decrease the level of detected luciferase activity by 50%, or more specifically, the ability of the genetically linked HCV replicon RNA to replicate, […]

Row | Structure (SMILES) | EC50 [nM]
1 | CC(C)OC(=O)[C@H](C)NP(=S)(OC[C@H]1O[C@@H](n2ccc(=O)[nH]c2=O)C(Cl)(Cl)[C@@H]1O)Oc1ccccc1 (stereo partly drawn) [Example 13, (2S)-Isopropyl 2-(((((2R,3R,5R)-4,4-Dichloro-5-(2,4-dioxo-3,4-dihydropyrimidin-1(2H)-yl)-3-hydroxytetrahydrofuran-2-yl)methoxy)(phenoxy)phosphorothioyl)amino)propanoate] | 5400

Same assay, conditions: Hepatitis C virus, Huh-7, 72 h; HCV type 1b replicon, Huh-Luc cells, three days incubation, luciferase; read-out: EC50

Row | Structure (SMILES) | EC50 [nM]
2 | O=c1ccn([C@@H]2O[C@H](CO)[C@@H](O)C2(Cl)Cl)c(=O)[nH]1 [Example 1, 1-((2R,4R,5R)-3,3-dichloro-4-hydroxy-5-(hydroxymethyl)tetrahydrofuran-2-yl)pyrimidine-2,4(1H,3H)-dione] | > 50000
3 | CC[C@@H](C)OC(=O)[C@H](C)NP(=O)(OC[C@H]1O[C@@H](n2ccc(=O)[nH]c2=O)C(Cl)(Cl)[C@@H]1O)Oc1ccccc1 (stereo partly drawn) [Example 4, (2S)—(R)-Sec-butyl 2-(((((2R,3R,5R)-4,4-dichloro-5-(2,4-dioxo-3,4-dihydropyrimidin-1(2H)-yl)-3-hydroxytetrahydrofuran-2-yl)methoxy)(phenoxy)phosphoryl)amino)propanoate] | 150
4 | C[C@H](NP(=O)(OC[C@H]1O[C@@H](n2ccc(=O)[nH]c2=O)C(Cl)(Cl)[C@@H]1O)Oc1ccccc1)C(=O)OC1CCCCC1 (stereo partly drawn) [Example 5, (2S)-Cyclohexyl 2-(((((2R,3R,5R)-4,4-dichloro-5-(2,4-dioxo-3,4-dihydropyrimidin-1(2H)-yl)-3-hydroxytetrahydrofuran-2-yl)methoxy)(phenoxy)phosphoryl)amino)propanoate] | 160
5 | CC[C@H](C)OC(=O)[C@H](C)NP(=O)(OC[C@H]1O[C@@H](n2ccc(=O)[nH]c2=O)C(Cl)(Cl)[C@@H]1O)Oc1ccccc1 (stereo partly drawn) [Example 6, (2S)—(S)-sec-butyl 2-(((((2R,3R,5R)-4,4-dichloro-5-(2,4-dioxo-3,4-dihydropyrimidin-1(2H)-yl)-3-hydroxytetrahydrofuran-2-yl)methoxy)(phenoxy)phosphoryl)amino)propanoate] | 100
6 | CC(C)OC(=O)[C@H](C)NP(=O)(OC[C@H]1O[C@@H](n2ccc(=O)[nH]c2=O)C(Cl)(Cl)[C@@H]1O)Oc1cccc(C2CCC2)c1 (stereo partly drawn) [Example 7, (2S)-isopropyl 2-(((3-cyclobutylphenoxy)(((2R,3R,5R)-4,4-dichloro-5-(2,4-dioxo-3,4-dihydropyrimidin-1(2H)-yl)-3-hydroxytetrahydrofuran-2-yl)methoxy)phosphoryl)amino)propanoate] | 220
7 | CC(C)OC(=O)[C@H](C)NP(=O)(OC[C@H]1O[C@@H](n2ccc(=O)[nH]c2=O)C(Cl)(Cl)[C@@H]1O)Oc1cccc(C2(C)CC2)c1 (stereo partly drawn) [Example 8, (2S)-Isopropyl 2-(((((2R,3R,5R)-4,4-dichloro-5-(2,4-dioxo-3,4-dihydropyrimidin-1(2H)-yl)-3-hydroxytetrahydrofuran-2-yl)methoxy)(3-(1-methylcyclopropyl)phenoxy)phosphoryl)amino)propanoate] | 230
8 | CC(C)OC(=O)[C@H](C)NP(=O)(OC[C@H]1O[C@@H](n2ccc(=O)[nH]c2=O)C(Cl)(Cl)[C@@H]1O)Oc1ccc(C2(C)CC2)cc1 (stereo partly drawn) [Example 9, (2S)-Isopropyl 2-(((((2R,3R,5R)-4,4-dichloro-5-(2,4-dioxo-3,4-dihydropyrimidin-1(2H)-yl)-3-hydroxytetrahydrofuran-2-yl)methoxy)(4-(1-methylcyclopropyl)phenoxy)phosphoryl)-amino)propanoate] | 360
9 | Nc1ccn([C@@H]2O[C@H](CO)[C@@H](O)C2(Cl)Cl)c(=O)n1 [Example 11, 4-Amino-1-((2R,4R,5R)-3,3-dichloro-4-hydroxy-5-(hydroxymethyl)tetrahydrofuran-2-yl)pyrimidin-2(1H)-one] | 13000
10 | CC(C)OC(=O)[C@H](C)NP(=O)(OC[C@H]1O[C@@H](n2ccc(N)nc2=O)C(Cl)(Cl)[C@@H]1O)Oc1ccccc1 (stereo partly drawn) [Example 12, (2S)-isopropyl 2-(((((2R,3R,5R)-5-(4-Amino-2-oxopyrimidin-1(2H)-yl)-4,4-dichloro-3-hydroxytetrahydrofuran-2-yl)methoxy)(phenoxy)phosphoryl)amino)propanoate] | 170
11 | CC(C)OC(=O)[C@@H](C)NP(=O)(OC[C@H]1O[C@@H](n2ccc(=O)[nH]c2=O)C(Cl)(Cl)[C@@H]1O)Oc1ccccc1 (stereo partly drawn) [Example 14, (2R)-Isopropyl 2-(((((2R,3R,5R)-4,4-dichloro-5-(2,4-dioxo-3,4-dihydropyrimidin-1(2H)-yl)-3-hydroxytetrahydrofuran-2-yl)methoxy)(phenoxy)phosphoryl)amino)propanoate] | 5700

Target: HCV NS5B-21 (UniProt Q9WMX2)
Assay: HCV NS5B-21 SPA enzyme assay
Format: biochemical
Conditions: triphosphate tested
Method: It is this triphosphate which is believed to be the antivirally active species. The enzyme assay described here may be used to confirm that compounds of the invention are antivirally active as the 5-triphosphate metabolite.
The enzyme assay measures the inhibitory effect of triphosphate compounds in an HCV NS5B-21 (21-amino acid C-terminally truncated version) SPA assay (scintillation proximity assay). The assay is performed by evaluating the amount of radiolabelled ATP incorporated by HCV NS5B-21 into newly synthesized RNA using an heterogeneous biotinylated RNA template.
To determine IC50 values the compounds are tested at various concentrations in a final volume of 100 μl of reaction mixture. The reaction is stopped by addition of 0.5M EDTA solution. The samples are transferred into flashplates precoated with streptavidin. The incorporated radioactivity is quantified using a scintillation counter (Wallac Microbeta Trilux).
The assay should include enzyme controls (about four, containing 1 μl DMSO instead of inhibitor) and background control containing all ingredients except template.
Compounds are serially diluted in DMSO on a separate dilution plate to 100× the final desired assay concentrations. […]
Incubate the plate over night and read the flash plate in the Microbeta Trilux using the protocol Flash plates H3.
IC50 is determined using Graphpad Prism. […]

Sequence of HCV NS5B-21 (Q9WMX2 2420-3010): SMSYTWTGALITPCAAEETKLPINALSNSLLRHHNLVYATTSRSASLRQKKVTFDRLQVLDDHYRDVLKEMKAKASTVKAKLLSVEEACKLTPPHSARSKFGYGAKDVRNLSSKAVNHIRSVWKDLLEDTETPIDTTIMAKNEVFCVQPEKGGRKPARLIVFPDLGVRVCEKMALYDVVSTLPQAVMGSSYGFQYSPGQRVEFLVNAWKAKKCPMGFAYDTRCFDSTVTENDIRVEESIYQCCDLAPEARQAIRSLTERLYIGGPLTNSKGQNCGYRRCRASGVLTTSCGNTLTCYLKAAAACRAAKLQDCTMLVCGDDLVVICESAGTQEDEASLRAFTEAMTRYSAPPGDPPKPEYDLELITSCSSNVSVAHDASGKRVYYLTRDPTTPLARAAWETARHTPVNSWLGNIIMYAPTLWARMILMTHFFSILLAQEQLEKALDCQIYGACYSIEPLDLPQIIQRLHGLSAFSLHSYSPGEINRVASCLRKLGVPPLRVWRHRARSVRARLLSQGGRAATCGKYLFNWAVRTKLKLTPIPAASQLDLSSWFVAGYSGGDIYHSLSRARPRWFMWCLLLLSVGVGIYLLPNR

Row | Structure (SMILES) | Ki [nM]
12 | O=c1ccn([C@@H]2O[C@H](COP(=O)(O)OP(=O)(O)OP(=O)(O)O)[C@@H](O)C2(Cl)Cl)c(=O)[nH]1 [Example 3, Lithium((2R,3R,5R)-4,4-dichloro-5-(2,4-dioxo-3,4-dihydropyrimidin-1(2H)-yl)-3-hydroxytetrahydrofuran-2-yl)methyl triphosphate] | 1600
13 | Nc1ccn([C@@H]2O[C@H](COP(=O)(O)OP(=O)(O)OP(=O)(O)O)[C@@H](O)C2(Cl)Cl)c(=O)n1 [Example 17, ((2R,3R,5R)-5-(4-Amino-2-oxopyrimidin-1(2H)-yl)-4,4-dichloro-3-hydroxytetrahydrofuran-2-yl)methyl tetrahydrogen triphosphate] | 170

System: genotype 1b HCV replicon
Assay: not given
Conditions: from WO 2012/142085; cited from earlier work

Row | Structure (SMILES) | EC50 [nM]
14 | CC(C)OC(=O)[C@H](C)OP(=O)(OC[C@H]1O[C@@H](n2ccc(N)nc2=O)[C@](C)(Cl)[C@@H]1O)Oc1ccccc1 (stereo partly drawn) [compound 8 of Merck WO2012/142085] | 34000
15 | CC1(Cl)C(O)C(CO)OC1n1ccc(N)nc1=O (stereo not drawn) [corresponding nucleoside] | 10000

— patent US20160271160A1, “HCV POLYMERASE INHIBITORS” (MEDIVIR AB, priority 2013, published 2016)
